In patent US11471469B2 (Lennham Pharmaceuticals, Inc., priority 2020, dated 2022):

Biological target: T1, Recombinant CYP19 (aromatase) (Homo sapiens, UniProt P11511)
T1 sequence (P11511 1-503): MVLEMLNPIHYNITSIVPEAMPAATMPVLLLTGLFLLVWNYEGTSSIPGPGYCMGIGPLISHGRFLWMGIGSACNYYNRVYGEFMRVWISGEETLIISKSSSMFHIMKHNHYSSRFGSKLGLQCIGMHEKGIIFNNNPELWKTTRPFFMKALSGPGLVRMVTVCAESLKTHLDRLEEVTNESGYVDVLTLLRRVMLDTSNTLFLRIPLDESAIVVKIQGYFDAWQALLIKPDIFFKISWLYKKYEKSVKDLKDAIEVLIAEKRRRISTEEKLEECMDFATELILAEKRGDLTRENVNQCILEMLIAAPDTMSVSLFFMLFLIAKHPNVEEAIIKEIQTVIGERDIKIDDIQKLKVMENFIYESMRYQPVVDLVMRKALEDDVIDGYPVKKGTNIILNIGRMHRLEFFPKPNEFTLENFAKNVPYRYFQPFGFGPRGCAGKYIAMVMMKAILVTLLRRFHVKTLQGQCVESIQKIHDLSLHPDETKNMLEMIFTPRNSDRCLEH
Assay: Metabolic stability in the presence of recombinant CYP19 (aromatase)
Protocol: The incubation conditions used are described in Table 1.
The analytical method used is described in Table 2.

[1] = recombinant human CYP19, compared with testosterone

Structure (SMILES): [2H]C([2H])([2H])[C@]12CCC(=O)C=C1CC[C@H]1[C@@H]3CC[C@H](O)[C@@]3(C)CC[C@@H]12 [Testosterone-19-d3, testosterone-19-d3]
- half-life (t1/2) in aromatase, times longer than that of non-isotopically enriched testosterone (recombinant human CYP19, 0.5 μM, 4 pmol/ml or 2 μM, 10 pmol/ml, NADPH 1 mM, 0-60 min at 37° C.): 4-7 times
- clearance by aromatase [1]: more resistant to clearance by aromatase
- metabolic stability in the presence of aromatase [1]: substantially higher stability than testosterone
